# From patent publication US20230057984A1, “NORMALIZATION OF CULTURE OF CORNEAL ENDOTHELIAL CELLS” (KYOTO PREFECTURAL PUBLIC UNIVERSITY CORPORATION, priority 2011, published 2023)
# Legend:
# [1] = tested on: Cynomolgus monkey corneal endothelial cells; assay: Western blot of Na+/K+-ATPase and ZO-1 in monkey corneal endothelial cells (Example 3); assay type: cell-based; settings: monkey CEC treated with SB431542 vs fibroblast phenotype control
# Protocol: Next, reaction was allowed for 1 hour at a room temperature with ALEXA FLUOR 488 (INVITROGEN (catalog number: A21206)) and ALEXA FLUOR 594 (INVITROGEN (catalog number: A21203)), diluted with TBS-T by 1,000 fold. After washing with PBS, the sample was encapsulated with VECTASHIELD WITH DAPI (VECTOR LABORATORIES (catalog number: 94010)) onto a slide, followed by observation through confocal microscope (Leica). • Western blot technique: protein extracted by RIPA buffer was electrophoresed with 7.5% polyacrylamide. The separated protein was transferred to a PVDF film (PALL LIFE SCIENCE (catalog number: EH-2222)). […] After washing, bands were detected using an ECL-ADVAVCE Western Blotting Detection Kit (GE healthcare Japan (catalog number: RPN2135V)). […]
# P-40 (Nacalai Tesque, catalog number: 23640-94), 0.5% sodium deoxycholate (Nacalai Tesque, catalog number:10712-12), and 0.1% SDS (Nacalai Tesque, catalog number:31607-65)). Thus obtained cell lysate was centrifuged (15,000 rpm, 10 minutes), the supernatant thereof was collected, and the protein was quantitated using a BCA PROTEIN ASSAY KIT (PIERCE, catalog number: 23227). […]
# [2] = tested on: Cynomolgus monkey corneal endothelial cells; assay: PCR of Na+/K+-ATPase and ZO-1 mRNA in monkey corneal endothelial cells (Example 3); assay type: cell-based; settings: monkey CEC treated with SB431542 vs fibroblast phenotype control
# Protocol: Method of culturing and the like was conducted in a similar manner as the Comparative Examples. In particular, materials similar to those in Example 2 were used. • SB431542: this was obtained from TOCRIS (catalog number: 1614). • Antibodies to Na^+/K^+-ATPase: those obtained from MILLIPORE (catalog number: 05-369) were used. • Antibodies to ZO-1: mice, those obtained from INVITROGEN (catalog number: 339100) were used; and rabbits, those obtained from ZYMED LABORATORIES (catalog number: 61-7300) were used. • Antibodies to GAPDH: those obtained from ABCAM (catalog number: ab36840) were used. • Immunostaining and the like: cells cultured in a similar manner to Example 2 were fixed and immunostaining was performed on Na^+/K^+-ATPase and ZO-1, followed by taking an image using a fluorescence microscope. • Western blot method: similar to Example 1, a Western blot method was performed on the Na^+/K^+-ATPase, ZO-1, and GAPDH. • Realtime PCR method: in addition, PCR was performed for Na^+/K^+-ATPase, ZO-1, and GAPDH in the following method. The primers were purchased from an oligonucleotide synthesizing company, INVITROGEN, and desalted primer were used. […] Amplified DNA fragments were electrophoresed in a 1.5% agarose gel, and were detected by ethidium bromide staining.
structure (smiles),measurement,setting,value
NC(=O)c1ccc(-c2nc(-c3ccc4c(c3)OCO4)c(-c3ccccn3)[nH]2)cc1 [SB431542],"expression of Na+/K+-ATPase and ZO-1, protein level (Western blot)",[1],strongly enhanced
same,"expression of Na+/K+-ATPase and ZO-1, mRNA level (PCR)",[2],strongly enhanced
